Test results: US5972953A, “Brain cell protective agent” (priority 1993, dated 1999)
Where two headings read alike, the source gives them in different places.

Experiments:
[1] = test system: nerve cells in the CAl region of the hippocampus; test: Protective action from delayed neuronal death (bilateral carotid ligation ischemia, residual hippocampal nerve cells); format: in vivo, mongolian jerbils; details: for inhibition of defluxion of brain nerve cells caused by ischemia: conclusion from Table 2
Protocol: Those compounds that provide protection from and suppress delayed neuronal death described in Example 18 are considered to be promising as preventive and therapeutic agents for ischemic brain disorders, brain nerve cell disorders and dementia, which are problems that the present invention is attempting to solve. The pharmacological activity of the compounds of the present invention was evaluated in the manner below using jerbils for the animal model.
A midline incision was made in mongolian having body weights of 50-70 g under ether anesthesia. Blood flow through the carotid arteries on both sides was interrupted to create an ischemic state by ligating the vessels for 5 minutes. The test compound was administered subcutaneously either 30 minutes or 1 hour prior to ligation ischemia, and the rectal temperature of the animals was controlled to 37±2° C. using a heating pad or heater starting 5 minutes before to 30 minutes after ligation ischemia. 1 week after ligation, 4% neutral buffered formalin was perfused from the heart throughout the body followed by extraction of the brain. After post-fixing the extracted brain in the same solution, the tissue was prepared into sections after embedding in paraffin. The sections were stained with hematoxylin and eosin, and the number of nerve cells in the CAl region of the hippocampus over a width of 1 mm to the left and right was counted. The total number of nerve cells on the right and left sides was then used for evaluation.

[2] = test system: cultured nerve cells (cerebral cortex); test: cells; format: cell-based, Wistar rat; details: Rattus norvegicus, Cerebral cortex neuron
[3] = 10 mM glutamate, 24 hours at 37° C., LDH leakage, read-out: ED50 (the source's name)

Row | Compound | inhibition of defluxion of brain nerve cells caused by ischemia [1] | EC50 [2, 3] [µM] | other results
1 | CN(C(=O)CCCCCc1ccccc1)[C@H]1CC[C@@]2(O)[C@H]3Cc4ccc(O)c5c4[C@@]2(CCN3CC2CC2)[C@H]1O5 [Compound 34, 17-cyclopropylmethyl-3,14β-dihydroxy-4,5α-epoxy-6α-(N-methyl-6-phenylhexanoamido)morphinan] | significantly inhibited defluxion of brain nerve cells caused by ischemia |  | 
2 | CC(C)CN(C(=O)Cc1ccc(Cl)c(Cl)c1)[C@H]1CC[C@@]2(O)[C@H]3Cc4ccc(O)c5c4[C@@]2(CCN3CC2CC2)[C@H]1O5 [Compound 35, 17-cyclopropylmethyl-3,14β-dihydroxy-4,5α-epoxy-6α-(N-isobutyl-3,4-dichlorophenylacetoamido)morphinan] | significantly inhibited defluxion of brain nerve cells caused by ischemia |  | No. of Residual Nerve Cells ([1]; 3 mg/kg s.c., 30 minutes before ischemia, 1 week after 5 min ligation): 203.1 ± 40.1
3 | CN(C(=O)/C=C/c1cccc(C(F)(F)F)c1)[C@@H]1CC[C@@]2(O)[C@H]3Cc4ccc(O)c5c4[C@@]2(CCN3CC2CC2)[C@H]1O5 [Compound 42, 17-cyclopropylmethyl-3,14β-dihydroxy-4,5α-epoxy-6β-(N-methyl-3-trifluoromethylcinnamamido)morphinan] | significantly inhibited defluxion of brain nerve cells caused by ischemia | 1.8 | 
4 | Cc1cccc(/C=C/C(=O)N(C)[C@@H]2CC[C@@]3(O)[C@H]4Cc5ccc(O)c6c5[C@@]3(CCN4CC3CC3)[C@H]2O6)c1 [Compound 46, 17-cyclopropylmethyl-3,14β-dihydroxy-4,5α-epoxy-6β-(N-methyl-3-methylcinnamamido) morphinan] | significantly inhibited defluxion of brain nerve cells caused by ischemia | 4.42 | 
5 | CN(C(=O)/C=C/c1cccc([N+](=O)[O-])c1)[C@@H]1CC[C@@]2(O)[C@H]3Cc4ccc(O)c5c4[C@@]2(CCN3CC2CC2)[C@H]1O5 [Compound 78, 17-cyclopropylmethyl-3,14β-dihydroxy-4,5α-epoxy-6β-(N-methyl-3-nitrocinnamamido)morphinan] | significantly inhibited defluxion of brain nerve cells caused by ischemia |  | 
6 | CN(C(=O)Nc1ccc(Cl)c(Cl)c1)[C@H]1CC[C@@]2(O)[C@H]3Cc4ccc(O)c5c4[C@@]2(CCN3CC2CC2)[C@H]1O5 [Compound 103, 17-Cyclopropylmethyl-3,14β-dihydroxy-4,5α-epoxy-6α-[N-methyl-N'-(3,4-dichlorophenyl)ureido]morphinan] |  | 0.54 | 
7 | CN(C(=O)NCc1ccccc1)[C@H]1CC[C@@]2(O)[C@H]3Cc4ccc(O)c5c4[C@@]2(CCN3CC2CC2)[C@H]1O5 [Compound 104, 17-Cyclopropylmethyl-3,14β-dihydroxy-4,5α-epoxy-6α-(N-methyl-N'-benzylureido)morphinan] |  | 0.58 | 
8 | CN(C(=S)NCc1ccccc1)[C@H]1CC[C@@]2(O)[C@H]3Cc4ccc(O)c5c4[C@@]2(CCN3CC2CC2)[C@H]1O5 [Compound 105, 17-cyclopropylmethyl-3,14β-dihydroxy-4,5α-epoxy-6α-(N-methyl-N'-benzylthioureido)morphinan] |  | 20.7 | 
9 | CN(C(=S)NCc1ccccc1)[C@@H]1CC[C@@]2(O)[C@H]3Cc4ccc(O)c5c4[C@@]2(CCN3CC2CC2)[C@H]1O5 [Compound 106, 17-cyclopropylmethyl-3,14β-dihydroxy-4,5α-epoxy-6β-(N-methyl-N'-benzylthioureido)morphinan] |  | 10.9 | 
10 | CN([C@H]1CC[C@@]2(O)[C@H]3Cc4ccc(O)c5c4[C@@]2(CCN3CC2CC2)[C@H]1O5)S(=O)(=O)Cc1ccc(Cl)c(Cl)c1 [Compound 111, 17-cyclopropylmethyl-3,14β-dihydroxy-4,5α-epoxy-6α-(N-methyl-3,4-dichlorophenylmethanesulfonamido) morphinan] |  | 0.54 | 
11 | CN([C@H]1CC[C@@]2(O)[C@H]3Cc4ccc(O)c5c4[C@@]2(CCN3CC2CC2)[C@H]1O5)S(=O)(=O)Cc1ccccc1 [Compound 112, 17-cyclopropylmethyl-3,14β-dihydroxy-4,5α-epoxy-6α-(N-methyl-phenylmethanesulfonamido)morphinan] |  | 1.45 | 
12 | O=C(CCc1ccccc1)O[C@H]1CC[C@@]2(O)[C@H]3Cc4ccc(O)c5c4[C@@]2(CCN3CC2CC2)[C@H]1O5 [Compound 113, 17-cyclopropylmethyl-3,14β-dihydroxy-4,5α-epoxy-6α-(3-phenylpropionyloxy)morphinanan] |  | 0.53 | 
13 | CC(=O)Oc1ccc2c3c1O[C@H]1[C@H](N(C)C(=O)/C=C/c4ccccc4)CC[C@@]4(O)[C@@H](C2)N(CC2CC2)CC[C@]314 [Compound 114, 17-cyclopropylmethyl-3-acetoxy-14β-hydroxy-4,5α-epoxy-6β-(N-methylcinnamamido)morphinan] |  |  | EC50 ([2]; 24 h, read-out: ED50): 60.3 µM
14 | CC(=O)O[C@@]12CC[C@@H](N(C)C(=O)/C=C/c3ccccc3)[C@@H]3Oc4c(O)ccc5c4[C@@]31CCN(CC1CC1)[C@@H]2C5 [Compound 115, 17-cyclopropylmethyl-3-hydroxy-14β-acetoxy-4,5α-epoxy-6β-(N-methylcinnamamido)morphinan] |  | 5.41 | 
15 | CN(C(=O)/C=C/c1cccc(N=C=S)c1)[C@@H]1CC[C@@]2(O)[C@H]3Cc4ccc(O)c5c4[C@@]2(CCN3CC2CC2)[C@H]1O5 [Compound 117, 17-cyclopropylmethyl-3,14β-dihydroxy-4,5α-epoxy-6β-(N-methyl-3-isothiocyanatocinnamamido)morphinan] |  | 9.57 | 
16 | CN(C(=O)/C=C/c1cccc(OC(F)(F)F)c1)[C@@H]1CC[C@@]2(O)[C@H]3Cc4ccc(O)c5c4[C@@]2(CCN3CC2CC2)[C@H]1O5 [Compound 120, 17-cyclopropylmethyl-3,14β-dihydroxy-4,5α-epoxy-6β-(N-methyl-3-trifluoromethoxycinnamamido)morphinan] |  |  | EC50 ([2]; 24 h, read-out: ED50): 1.06 µM
